For test [1], the target named is D2R (Homo sapiens, UniProt P14416). The experiment in a line: Dynamic mass redistribution. The settings on record: 500 nM bivalent compounds or 1 μM spiperone for 30 min, then 100 nM sumanirole. The format is cell-based.
The target in test [2] is D2R (Ovis aries, UniProt A0ACI6R699). The format is binding, sheep.

“Also recorded” adds a separate entry of the source.

Chain of D2R (Homo sapiens, UniProt P14416) (P14416 whole entry): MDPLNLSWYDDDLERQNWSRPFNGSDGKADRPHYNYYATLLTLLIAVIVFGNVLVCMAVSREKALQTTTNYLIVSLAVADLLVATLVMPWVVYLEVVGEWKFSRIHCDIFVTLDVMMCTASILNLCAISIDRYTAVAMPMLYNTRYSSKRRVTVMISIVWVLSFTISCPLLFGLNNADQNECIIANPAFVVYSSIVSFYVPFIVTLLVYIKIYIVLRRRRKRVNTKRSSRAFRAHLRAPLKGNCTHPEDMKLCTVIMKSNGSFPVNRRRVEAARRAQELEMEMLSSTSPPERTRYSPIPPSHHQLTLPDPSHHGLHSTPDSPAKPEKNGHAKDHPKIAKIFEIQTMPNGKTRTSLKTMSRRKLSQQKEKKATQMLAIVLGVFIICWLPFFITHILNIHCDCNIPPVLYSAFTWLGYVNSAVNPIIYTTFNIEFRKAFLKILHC

For `O=C(CCCN1CCC2(CC1)C(=O)NCN2c1ccccc1)c1ccc(F)cc1` [spiperone, reference compound], the “magnitude of the signaling by sumanirole in presence of ligand (DMR)” value (from here on “magnitude of the signaling by sumanirole”) in test [1] is “significantly decreased”. With `COC(=O)CN(CC(=O)NCCCOCCOCCOCCCNC(=O)CCC(=O)Nc1ccc(CCN2CN(c3ccccc3)C3(CCN(CCCC(=O)c4ccc(F)cc4)CC3)C2=O)cc1)CC(=O)NCCCOCCOCCOCCCNC(=O)CCC(=O)Nc1ccc(CCN2CN(c3ccccc3)C3(CCN(CCCC(=O)c4ccc(F)cc4)CC3)C2=O)cc1` [Compound 12, Methyl 24-((4-(2-(8-(4-(4-fluorophenyl)-4-oxobutyl)-4-oxo-1-phenyl-1,3,8-triazaspiro[4.5]decan-3-yl)ethyl)phenyl)amino)-3-(21-((4-(2-(8-(4-(4-fluorophenyl)-4-oxobutyl)-4-oxo-1-phenyl-1,3,8-triazaspiro[4.5]decan-3-yl)ethyl)phenyl)amino)-2,18,21-trioxo-7,10,13-trioxa-3,17-diazahenicosyl)-5,21,24-trioxo-10,13,16-trioxa-3,6,20-triazatetracosanoate], in test [1], the “magnitude of the signaling by sumanirole” value was “significantly decreased”. Turning to `COC(=O)CN(CC(=O)NCCOCCOCCNC(C)=O)CC(=O)NCCOCCOCCNC(=O)CCC(=O)Nc1ccc(CCN2CN(c3ccccc3)C3(CCN(CCCC(=O)c4ccc(F)cc4)CC3)C2=O)cc1` [Compound 15, Methyl 3-(2,13-dioxo-6,9-dioxa-3,12-diazatetradecyl)-19-((4-(2-(8-(4-(4-fluorophenyl)-4-oxobutyl)-4-oxo-1-phenyl-1,3,8-triazaspiro[4.5]decan-3-yl)ethyl)phenyl)amino)-5,16,19-trioxo-9,12-dioxa-3,6,15-triazanonadecanoate], the “effect of TAT-TM6 peptides on binding” value in test [2] (TAT-TM6 peptides of D2R and A2AR, native tissue) is listed as “had no effect; also recorded: Neither TAT-TM6 peptide of D2R nor A2R influenced the binding”. On to `COC(=O)CN(CC(=O)NCCOCCOCCNC(=O)CCC(=O)Nc1ccc(CCN2CN(c3ccccc3)C3(CCN(CCCC(=O)c4ccc(F)cc4)CC3)C2=O)cc1)CC(=O)NCCOCCOCCNC(=O)CCC(=O)Nc1ccc(CCN2CN(c3ccccc3)C3(CCN(CCCC(=O)c4ccc(F)cc4)CC3)C2=O)cc1` [Compound 13, Methyl 19-((4-(2-(8-(4-(4-fluorophenyl)-4-oxobutyl)-4-oxo-1-phenyl-1,3,8-triazaspiro[4.5]decan-3-yl)ethyl)phenyl)amino)-3-(16-((4-(2-(8-(4-(4-fluorophenyl)-4-oxobutyl)-4-oxo-1-phenyl-1,3,8-triazaspiro[4.5]decan-3-yl)ethyl)phenyl)amino)-2,13,16-trioxo-6,9-dioxa-3,12-diazahexadecyl)-5,16,19-trioxo-9,12-dioxa-3,6,15-triazanonadecanoate], for which the “decrease of binding by disturber peptide TAT-TM6” value in test [2] (TAT-TM6 of D2R vs no peptide) was determined as 52 fold. The “magnitude of the signaling by sumanirole” value in test [1] was “significantly decreased”.

Values taken from publication PMC9366271 (Journal of medicinal chemistry, 2018).
